Data as given in patent US20100189648A1, “INHIBITORS FOR DISRUPTING THE INTERACTION OF UBIQUITINATION RELATED ENZYMES AND USES THEREOF” (priority 2006, published 2010).
Values after ≈ are worked out from the molar mass of the structure shown. Where two headings read alike, the source gives them in different places.

Key:
Format in all cases: cell-based, human
[1] = test system: U251; test: MTT survival assay, glioma cell line (brain tumor U251); conditions: U251 (first table)
Protocol: (§1) The effect of the above identified compounds on anti-tumor activity in human carcinoma cells was determined by the MTT survival assay. The MTT assay is a commonly used method in evaluation of cell survival, based on the ability of viable cells to convert MTT (MTT, Sigma, Cat No. 044K5307), a soluble tetrazolium salt [3-(4,5-dimethylthuazole-2-yl)-2,5 diphenyl tetrazolium bromide], into an insoluble formazan precipitate, which is quantitated by spectrophotometry following solubilization in dimethyl sulfoxide (DMSO).
(§2) In brief, different carcinoma cells were treated with negative control, various test articles at different concentration, and positive control (DDP), in 96-well tissue culture dishes. Each test article at different concentration is repeated 3 times.
(§3) Different carcinoma cells were diluted with 10% FBS and RPM1640 or MEM media to a concentration of 3-5×10^4 per ml suspension. 100 microliter of cells were incubated in each well in 96-well tissue culture dishes at 37 C. The cells were incubated at 37 C on the first day. On the second day, media supernatant was removed and replaced with media and different concentration of test articles (100 microliter in each well). Three Negative control wells and three positive control (DDP) wells were also included. The 96-well plate were incubated at 37 C for another 68 hours. After 68 hours, supernatant of each well was removed. 100 microliter of 1 mg/ml MTT diluted in PBS was injected into each well. The cells were incubated at 37 C for another 4 hours. The cells were then solubilized in 150 microliter DMSO, mixed for 10 minutes and absorbance readings were taken using Microplate reader Bio-Rad Model 550 at 570 nm. IR (cell growth inhibition rate) % was calculated as (OD570 of negative control-OD570 with test article)/OD570 of negative control. IC50 (cell 50% inhibition concentration) at 95% confidence level was calculated with Bliss method.

[2] = test system: MCF-7; test: MTT survival assay, breast cancer cell line (MCF-7); conditions: for IC50: Homo sapiens
Protocol: as §1, §2, §3

[3] = test system: A459; test: MTT survival assay, lung cancer cell line (A459); conditions: A459
Protocol: as §1, §2, §3

[4] = test system: Hela cells; test: MTT survival assay, cervical cancer line (Hela cells)
Protocol: as §1, §2, §3

[5] = test system: SMMC-7721; test: MTT survival assay, liver cancer cell line (SMMC-7721); conditions: SMMC-7721
Protocol: as §1, §2, §3

[6] = test system: SKOV3; test: MTT survival assay, ovarian cancer cell line (SKOV3); conditions: SKOV3 (first table)
Protocol: as §1, §2, §3

Question: Which results are given for `COc1ccccc1NC(=O)CSc1nc(-c2ccccc2)nc2ccccc12` [Mol 44]?
Answer: IC50 ([1]; Homo sapiens, U-251, Bliss method, unit not printed (concentrations in μg/ml), read-out: IC50 (95% confidence level)): 129 µg/mL (≈ 322 µM); IR (%) ([1]; 1.56 μg/ml): 9.9%; OD(A570 nm) ([1]; 1.56 μg/ml): 0.790 ± 0.086; IR (%) ([1]; 3.125 μg/ml): 19.6%; OD(A570 nm) ([1]; 3.125 μg/ml): 0.705 ± 0.061; IR (%) ([1]; 6.25 μg/ml): 1.2%; OD(A570 nm) ([1]; 6.25 μg/ml): 0.866 ± 0.090; IR (%) ([1]; 12.5 μg/ml): 7.5%; OD(A570 nm) ([1]; 12.5 μg/ml): 0.811 ± 0.050; IR (%) ([1]; 25 μg/ml): 15.9%; OD(A570 nm) ([1]; 25 μg/ml): 0.737 ± 0.067; IR (%) ([1]; 50 μg/ml): 24.9%; OD(A570 nm) ([1]; 50 μg/ml): 0.659 ± 0.047; IR (%) ([2]; 1.56 μg/ml): 13.3%; OD(A570 nm) ([2]; 1.56 μg/ml): 0.787 ± 0.176; IR (%) ([2]; 3.125 μg/ml): 12.8%; OD(A570 nm) ([2]; 3.125 μg/ml): 0.811 ± 0.109; IR (%) ([2]; 6.25 μg/ml): 10.2%; OD(A570 nm) ([2]; 6.25 μg/ml): 0.791 ± 0.151; IR (%) ([2]; 12.5 μg/ml): 12.4%; OD(A570 nm) ([2]; 12.5 μg/ml): 0.791 ± 0.151; IR (%) ([2]; 25 μg/ml): 34.9%; OD(A570 nm) ([2]; 25 μg/ml): 0.587 ± 0.030; IR (%) ([2]; 50 μg/ml): 41.6%; OD(A570 nm) ([2]; 50 μg/ml): 0.527 ± 0.035; IC50 ([2]; MCF7, 95% confidence limits of IC50, read-out: IC50 (95% confidence level), interval): 71.3 to 551 µg/mL (≈ 178 to 1370 µM); IC50 ([2]; MCF7, Bliss method, unit not printed (concentrations in μg/ml), read-out: IC50 (95% confidence level)): 145 µg/mL (≈ 362 µM); IR (%) ([3]; 1.56 μg/ml): 0.6%; OD(A570 nm) ([3]; 1.56 μg/ml): 0.634 ± 0.009; IR (%) ([3]; 3.125 μg/ml): −23.3%; OD(A570 nm) ([3]; 3.125 μg/ml): 0.786 ± 0.048; IR (%) ([3]; 6.25 μg/ml): −6.8%; OD(A570 nm) ([3]; 6.25 μg/ml): 0.680 ± 0.015; IR (%) ([3]; 12.5 μg/ml): 8.1%; OD(A570 nm) ([3]; 12.5 μg/ml): 0.586 ± 0.051; IR (%) ([3]; 25 μg/ml): 21.0%; OD(A570 nm) ([3]; 25 μg/ml): 0.504 ± 0.046; IR (%) ([3]; 50 μg/ml): 42.3%; OD(A570 nm) ([3]; 50 μg/ml): 0.368 ± 0.039; IC50 ([3]; Homo sapiens, Bliss method, unit not printed (concentrations in μg/ml), read-out: IC50 (95% confidence level)): 150 µg/mL (≈ 374 µM); IR (%) ([4]; 0.07 μg/ml): 19.3%; OD(A570 nm) ([4]; 0.07 μg/ml): 0.599 ± 0.109; IR (%) ([4]; 0.21 μg/ml): 11.8%; OD(A570 nm) ([4]; 0.21 μg/ml): 0.655 ± 0.007; OD(A570 nm) ([4]; 0.62 μg/ml): 0.765 ± 0.200; IR (%) ([4]; 1.85 μg/ml): 0.8%; OD(A570 nm) ([4]; 1.85 μg/ml): 0.737 ± 0.113; IR (%) ([4]; 5.56 μg/ml): 9.7%; OD(A570 nm) ([4]; 5.56 μg/ml): 0.671 ± 0.044; IR (%) ([4]; 16.67 μg/ml): 7.4%; OD(A570 nm) ([4]; 16.67 μg/ml): 0.688 ± 0.045; IR (%) ([5]; 1.56 μg/ml): 37.6%; OD(A570 nm) ([5]; 1.56 μg/ml): 0.275 ± 0.004; IR (%) ([5]; 3.125 μg/ml): 27.2%; OD(A570 nm) ([5]; 3.125 μg/ml): 0.321 ± 0.088; IR (%) ([5]; 6.25 μg/ml): 38.3%; OD(A570 nm) ([5]; 6.25 μg/ml): 0.272 ± 0.019; IR (%) ([5]; 12.5 μg/ml): 11.1%; OD(A570 nm) ([5]; 12.5 μg/ml): 0.392 ± 0.039; IR (%) ([5]; 25 μg/ml): 15.4%; OD(A570 nm) ([5]; 25 μg/ml): 0.373 ± 0.019; IR (%) ([5]; 50 μg/ml): 21.6%; OD(A570 nm) ([5]; 50 μg/ml): 0.345 ± 0.025; IC50 ([6]; Homo sapiens, SK-OV-3, Bliss method, unit not printed (concentrations in μg/ml), read-out: IC50 (95% confidence level)): 60 µg/mL (≈ 149 µM); IR (%) ([6]; 1.56 μg/ml): 27.9%; OD(A570 nm) ([6]; 1.56 μg/ml): 0.505 ± 0.029; IR (%) ([6]; 3.125 μg/ml): 23.9%; OD(A570 nm) ([6]; 3.125 μg/ml): 0.533 ± 0.017; IR (%) ([6]; 6.25 μg/ml): 23.0%; OD(A570 nm) ([6]; 6.25 μg/ml): 0.539 ± 0.023; IR (%) ([6]; 12.5 μg/ml): 25.1%; OD(A570 nm) ([6]; 12.5 μg/ml): 0.525 ± 0.035; IR (%) ([6]; 25 μg/ml): 39.1%; OD(A570 nm) ([6]; 25 μg/ml): 0.426 ± 0.008; IR (%) ([6]; 50 μg/ml): 52.4%; OD(A570 nm) ([6]; 50 μg/ml): 0.333 ± 0.008
